Assays:
A549 = assay: Cell viability assay in solid tumor cell lines (Cell-Titer Glo), A549; assay type: cell-based; settings: Homo sapiens, 72 hours
Protocol: (§1) Cell Viability Assay in Solid Tumors Cell Lines (Data in FIG. 2)
(§2) Human cancer cell lines (lung, ovarian, breast pancreatic and mesothelioma) were purchased from the ATCC. The cell lines were cultured in RPMI 1640 (Life Technologies, Carlsbad, Calif.) supplemented with 10% fetal bovine serum (FBS) and antibiotics. […] At the end of treatment, cell proliferation was determined by an intracellular adenosine triphosphate monitoring system (Cell-Titer Glo-Promega).
(§3) Inhibitory activity was evaluated comparing treated versus control data using the GraphPad Prism 6.0 software.

PARP1 = biological target: T1, PARP1 (Homo sapiens, UniProt P09874); assay: PARP enzymatic activity inhibition (Trevigen HT Universal PARP Assay Kit); assay type: biochemical
T1 construct: purchased Trevigen 4677-096-K
T1 sequence (P09874 whole entry): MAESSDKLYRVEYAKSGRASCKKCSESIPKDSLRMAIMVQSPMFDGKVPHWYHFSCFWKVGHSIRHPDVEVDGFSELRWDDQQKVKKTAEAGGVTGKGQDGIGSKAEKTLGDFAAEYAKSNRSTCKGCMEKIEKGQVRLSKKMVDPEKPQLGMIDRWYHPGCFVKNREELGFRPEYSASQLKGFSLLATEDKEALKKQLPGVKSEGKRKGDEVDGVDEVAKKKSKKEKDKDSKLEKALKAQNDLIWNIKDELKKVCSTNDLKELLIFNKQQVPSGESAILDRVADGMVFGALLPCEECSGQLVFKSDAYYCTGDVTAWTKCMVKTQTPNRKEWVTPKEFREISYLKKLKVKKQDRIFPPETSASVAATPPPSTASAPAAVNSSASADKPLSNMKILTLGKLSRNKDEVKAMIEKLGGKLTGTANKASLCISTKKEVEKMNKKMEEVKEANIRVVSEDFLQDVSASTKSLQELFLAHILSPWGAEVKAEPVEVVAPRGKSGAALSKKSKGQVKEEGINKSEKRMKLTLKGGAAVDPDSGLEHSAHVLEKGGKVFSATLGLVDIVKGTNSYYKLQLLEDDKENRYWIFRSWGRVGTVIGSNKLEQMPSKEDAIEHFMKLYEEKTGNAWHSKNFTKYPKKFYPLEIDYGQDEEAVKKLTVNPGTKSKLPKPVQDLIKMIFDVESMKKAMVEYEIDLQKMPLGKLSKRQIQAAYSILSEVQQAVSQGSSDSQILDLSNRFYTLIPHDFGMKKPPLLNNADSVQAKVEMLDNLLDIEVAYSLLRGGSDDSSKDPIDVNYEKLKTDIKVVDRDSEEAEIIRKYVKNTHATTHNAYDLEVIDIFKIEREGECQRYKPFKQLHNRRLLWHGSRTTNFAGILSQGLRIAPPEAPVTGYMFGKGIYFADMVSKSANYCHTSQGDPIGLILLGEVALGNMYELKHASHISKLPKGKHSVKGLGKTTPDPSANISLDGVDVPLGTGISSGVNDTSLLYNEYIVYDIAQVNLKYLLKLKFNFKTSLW
Protocol: PARP Enzymatic Activity Inhibition: Determination of IC50 Values for Selected Compounds (Data in FIG. 1)
(§4) The half maximal inhibitory concentration (IC50) with respect to PARP inhibition was determined for each test compound by using Trevigen's HT Universal PARP Assay Kit, according to the manufacturer's protocol (Cat #4677-096-K, Gaithersburg, Md.). This assay measures the incorporation of biotinylated poly(ADP-ribose) onto histone proteins in a 96-well strip well format. This assay is ideal for the determination of IC50 values of known or suspected PARP inhibitors. Briefly, stock solutions of each test compound were prepared in DMSO. Histone strip wells were incubated for 30 minutes at room temperature with 50 μl/well of 1×PARP Buffer to rehydrate the histones. Serial dilutions of either test compound were added to appropriate wells. Diluted PARP enzyme (0.5 Unit/well) was then added to the wells containing compounds, and incubated for 10 minutes at room temperature. Subsequently, 25 μl of 1×PARP Cocktail, containing activated DNA, was distributed into each well. Three types of control wells were also analyzed; i. A negative control without PARP was prepared to determine background absorbance. ii. An activity control for PARP Inhibitor Study: 0.5 Unit/well PARP-HSA without inhibitors. These wells provided the 100% activity reference point. iii. And a PARP Standard Curve: Serial dilution of the PARP-HAS standard were prepared in cold microtubes with 1×PARP Buffer such that the total activity is 1 Unit/25 μl, 0.5 Units/25 μl, 0.25 Units/25 μl, 0.1 Units/25 μl, 0.05 Units/25 μl, 0.025 Units/25 and 0.01 Units/25 μl. 25 μl of each standard was added to triplicate wells. Following a 60 minutes incubation at room temperature, the strip wells were washed twice with 1×PBS+0.1% Triton X-100, and twice with 1×PBS. For activity detection, 50 μl per well of diluted Strep-HRP was added, and then incubated at room temperature for 60 minutes. Subsequently, 50 μl per well of pre-warmed TACS-Sapphire™ colorimetric substrate was added followed by a 15 minutes incubation, in the dark, at room temperature. The reactions were then stopped by adding 50 μl per well of 0.2M HCl or 5% Phosphoric Acid and read the absorbance at 450 nm.
The IC50 values were determined by performing non-linear regression analysis fitting velocities and the logarithm of inhibitor concentrations to a sigmoidal dose response with a variable slope model using the GraphPad Prism 6.0 software.

OVCAR8 = assay: Cell viability assay in solid tumor cell lines (Cell-Titer Glo), OVCAR8; assay type: cell-based; settings: Homo sapiens, OVCAR-8, 72 hours
Protocol: as §1, §2, §3

ABL1 = ABL1 (Homo sapiens, UniProt P00519); assay: ABL kinase assay (Z'-LYTE biochemical kinase profiling); settings: ATP 10 μM final
Chain of ABL1 (P00519 whole entry): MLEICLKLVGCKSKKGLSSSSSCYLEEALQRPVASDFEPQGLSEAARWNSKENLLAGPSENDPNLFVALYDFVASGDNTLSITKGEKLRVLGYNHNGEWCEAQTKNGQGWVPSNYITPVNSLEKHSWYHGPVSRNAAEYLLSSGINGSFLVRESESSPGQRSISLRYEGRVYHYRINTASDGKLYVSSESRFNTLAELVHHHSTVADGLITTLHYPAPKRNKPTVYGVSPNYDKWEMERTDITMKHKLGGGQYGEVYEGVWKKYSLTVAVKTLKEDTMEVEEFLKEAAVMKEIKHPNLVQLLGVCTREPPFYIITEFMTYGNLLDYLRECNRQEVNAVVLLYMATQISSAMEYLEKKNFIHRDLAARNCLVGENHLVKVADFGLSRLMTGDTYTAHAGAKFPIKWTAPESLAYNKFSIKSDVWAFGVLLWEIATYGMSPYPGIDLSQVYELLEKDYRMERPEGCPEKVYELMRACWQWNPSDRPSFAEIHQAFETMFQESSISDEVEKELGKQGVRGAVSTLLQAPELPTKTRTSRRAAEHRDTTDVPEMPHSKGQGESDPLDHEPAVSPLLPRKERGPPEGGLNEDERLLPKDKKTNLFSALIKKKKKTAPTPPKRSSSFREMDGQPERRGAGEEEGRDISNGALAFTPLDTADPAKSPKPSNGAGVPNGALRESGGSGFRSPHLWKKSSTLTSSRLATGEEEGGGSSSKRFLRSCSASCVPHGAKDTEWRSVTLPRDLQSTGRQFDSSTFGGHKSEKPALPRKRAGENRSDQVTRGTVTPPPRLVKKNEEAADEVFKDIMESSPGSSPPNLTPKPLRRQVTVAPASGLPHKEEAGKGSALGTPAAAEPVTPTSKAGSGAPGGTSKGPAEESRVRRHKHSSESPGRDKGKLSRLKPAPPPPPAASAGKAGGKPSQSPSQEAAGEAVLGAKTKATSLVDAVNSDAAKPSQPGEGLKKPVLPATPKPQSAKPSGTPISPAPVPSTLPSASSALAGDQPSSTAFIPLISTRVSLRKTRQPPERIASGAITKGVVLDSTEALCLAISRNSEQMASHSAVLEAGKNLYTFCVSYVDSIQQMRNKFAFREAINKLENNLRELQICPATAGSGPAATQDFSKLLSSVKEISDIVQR
Protocol: ABL Kinase Assays (Data in FIG. 1)
The direct inhibitory effect of the test compounds on the ABL kinases activity was assessed using the Z′-LYTE biochemical kinase profiling assays (SelectScreen Kinase Profiling assays, Life Technologies). The Z′-LYTE biochemical assay employs a fluorescence-based, coupled-enzyme format and is based on the differential sensitivity of phosphorylated and non-phosphorylated peptides to proteolytic cleavage. The peptide substrate is labeled with two fluorophores (one at each end) that make up a FRET pair. In the primary reaction, the kinase transfers the gamma-phosphate of ATP to a single tyrosine, serine or threonine residue in a synthetic FRET-peptide. In the secondary reaction, a site-specific protease recognizes and cleaves non-phosphorylated FRET-peptides. Phosphorylation of FRET-peptides suppresses cleavage by the Development Reagent. Cleavage disrupts FRET between the donor and acceptor fluorophores on the FRET-peptide, whereas uncleaved, phosphorylated FRET-peptides maintain FRET. The extent of phosphorylation of the FRET-peptide can be calculated from the Emission Ratio between cleaved and uncleaved FRET-peptides. The Emission Ratio will remain low if the FRET-peptide is phosphorylated (i.e., no kinase inhibition) and will be high if the FRET-peptide is non-phosphorylated (i.e., kinase inhibition).
Using the above described assay, The Test Compounds were screened in 1% DMSO (final) in the well. 10 point titrations, 3-fold serial dilutions were conducted. Briefly, in a black 384-well plate serial dilutions of test compound or 100 nL 100× were mixed with kinase buffer peptide/Kinase Mixture and ATP Solution (10 μM final). After one hour Kinase Reaction incubation at room temperature, the development Reagent Solution was added. Subsequently, the fluorescence signals were measured using a fluorescence plate reader. Data were analyzed and the IC50 were calculated with XLfit graphing software using the sigmoidal dose-response model.

PARP2 = PARP2 (Homo sapiens, UniProt Q9UGN5); assay: PARP enzymatic activity inhibition, PARP2 column; assay type: biochemical
Chain of PARP2 (Q9UGN5 whole entry, species assumed): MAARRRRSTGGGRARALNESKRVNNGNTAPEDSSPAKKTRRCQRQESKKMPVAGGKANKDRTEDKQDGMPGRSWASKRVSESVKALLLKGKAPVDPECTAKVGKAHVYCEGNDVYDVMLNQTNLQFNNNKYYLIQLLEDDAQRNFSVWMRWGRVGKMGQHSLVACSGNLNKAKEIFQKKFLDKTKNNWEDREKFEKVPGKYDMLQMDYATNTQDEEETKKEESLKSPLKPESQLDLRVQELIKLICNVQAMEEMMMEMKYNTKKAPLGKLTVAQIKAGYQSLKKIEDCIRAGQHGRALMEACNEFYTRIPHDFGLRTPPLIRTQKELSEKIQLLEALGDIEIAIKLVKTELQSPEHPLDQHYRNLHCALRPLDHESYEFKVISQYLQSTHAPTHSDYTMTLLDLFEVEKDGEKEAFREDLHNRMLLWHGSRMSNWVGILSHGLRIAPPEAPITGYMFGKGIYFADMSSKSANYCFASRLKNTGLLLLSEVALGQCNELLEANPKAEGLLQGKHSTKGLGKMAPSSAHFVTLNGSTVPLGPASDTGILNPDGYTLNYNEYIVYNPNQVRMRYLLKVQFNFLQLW
Protocol: as §4, with “And a PARP Standard Curve: Serial dilution of the PARP-HAS standard were prepared in cold microtubes with 1×PARP Buffer such that the total activity is 1 Unit/25 μl, 0.5 Units/25 μl, 0.25 Units/25 μl, 0.1 Units/25 μl, 0.05 Units/25 μl, 0.025 Units/25 and 0.01 Units/25 μl. 25 μl of each standard was added to triplicate wells. Following a 60 minutes incubation at room temperature, the strip wells were washed twice with 1×PBS+0.1% Triton X-100, and twice with 1×PBS. For activity detection, 50 μl per well of diluted Strep-HRP was added, and then incubated at room temperature for 60 minutes. Subsequently, 50 μl per well of pre-warmed TACS-Sapphire™ colorimetric substrate was added followed by a 15 minutes incubation, in the dark, at room temperature.” left out

bovine brain tubulin = assay: Tubulin polymerization assay (Cytoskeleton kit BK011P); assay type: biochemical; settings: % Inhibition versus control; compound concentration of 4 μM
From the text: Tubulin Polymerization Assay (Data in FIG. 1)
The high-throughput screening-tubulin polymerization assay kit (Cytoskeleton, Cat. #BK011P) is an economical one step procedure for determining the effects of drugs or proteins on tubulin polymerization. Polymerization is followed by fluorescence enhancement due to the incorporation of a fluorescent reporter into microtubules as polymerization occurs. The standard assay tubulin generates a polymerization curve representing the three phases of microtubule formation, namely nucleation, growth, and steady state equilibrium. Compounds that interact with tubulin will often alter one or more of the characteristic phases of polymerization. For example, the anti-mitotic drug paclitaxel eliminates the nucleation phase and enhances the Vmax of the growth phase. Similarly, the microtubule destabilizing drug, vinblastine (also antimitotic) causes a decrease in Vmax and a reduction in final polymer mass. Thus, one application of this assay is the identification of novel anti-mitotics.
The direct effects of the test compounds on tubulin polymerization were investigated using the abovementioned Tubulin polymerization assay kit (Cytoskeleton, Cat. #BK011P), as indicated by the manufacturer protocol. Briefly, bovine brain tubulin (400 μg/sample) in the presence of either 0.5% DMSO treated (control), 4 μM test compounds, 3 μM paclitaxel (Cytoskeleton), or 3 μM vinblastine (Cytoskeleton) was incubated in PEM buffer [80 mm PIPES, 1 mm EGTA, 1 mm MgCl2 (pH 6.8)] containing 1.0 mm GTP (G-PEM) and 15% glycerol, at 37 C. All samples (wells) contained 15% glycerol. The degree of polymerization over time was measured in a spectrophotometer (Biotek synergy HT plate reader) at 350 nm. All time points were plotted and analyzed using GraphPad Prism 6.0 software.
DMSO control was set as 0% inhibition. Positive values depict the percentage of decrease in Vmax and final polymer mass, as compared to control. Negative values are inversely correlated to degree of nucleation phase elimination and the percentage of increase of the Vmax, as compared to control.

| IC50 (A549) | IC50 (PARP1) | IC50 (OVCAR8) | IC50 (ABL1) | IC50 (PARP2) | SMILES | Tubulin Polymerization Inhibition (bovine brain tubulin) |
| --- | --- | --- | --- | --- | --- | --- |
| 500 to 1000 nM | > 10000 nM | 500 to 1000 nM | < 500 nM | – | CCOC(=O)Nc1nc2cc(-c3n[nH]c(=O)c4ccc(Cl)cc34)ccc2[nH]1 [Compound No. 21, Ethyl (5-(7-chloro-4-oxo-3,4-dihydrophthalazin-1-yl)-1H-benzimidazol-2-yl)carbamate] | – |
| 1000 to 5000 nM | > 10000 nM | 1000 to 5000 nM | < 500 nM | – | CCNC(=O)Nc1nc2cc(-c3n[nH]c(=O)c4ccccc34)ccc2[nH]1 [Compound No. 80, 1-Ethyl-3-(5-(4-oxo-3,4-dihydrophthalazin-1-yl)-1H-benzimidazol-2-yl)urea] | – |
| < 500 nM | 5000 to 10000 nM | < 500 nM | < 500 nM | – | CCCC(=O)Nc1nc2cc(-c3n[nH]c(=O)c4ccccc34)ccc2[nH]1 [Compound No. 86, N-(5-(4-oxo-3,4-dihydrophthalazin-1-yl)-1H-benzimidazol-2-yl)butyramide] | – |
| < 500 nM | 1000 to 5000 nM | < 500 nM | < 500 nM | – | CCOC(=O)Nc1nc2cc(-c3n[nH]c(=O)c4ccccc34)cc(Cl)c2[nH]1 [Compound No. 135, Ethyl (7-chloro-5-(4-oxo-3,4-dihydrophthalazin-1-yl)-1H-benzimidazol-2-yl)carbamate] | – |
| < 500 nM | – | < 500 nM | < 500 nM | – | CCCC(=O)Nc1nc2cc(-c3n[nH]c(=O)c4ccccc34)cc(Cl)c2[nH]1 [Compound No. 139, N-(7-chloro-5-(4-oxo-3,4-dihydrophthalazin-1-yl)-1H-benzimidazol-2-yl)butyramide] | – |
| < 500 nM | 5000 to 10000 nM | < 500 nM | < 500 nM | – | CCOC(=O)Nc1nc2cc(-c3n[nH]c(=O)c4ccccc34)cc(Br)c2[nH]1 [Compound No. 140, Ethyl (7-bromo-5-(4-oxo-3,4-dihydrophthalazin-1-yl)-1H-benzimidazol-2-yl)carbamate] | – |

Continued, compound first:

| SMILES | IC50 (A549) | IC50 (PARP1) | IC50 (OVCAR8) | IC50 (ABL1) | IC50 (PARP2) | Tubulin Polymerization Inhibition (bovine brain tubulin) |
| --- | --- | --- | --- | --- | --- | --- |
| CCOC(=O)Nc1nc2cc(-c3n[nH]c(=O)c4ccccc34)ccc2[nH]1 [Compound No. 1, Ethyl (5-(4-oxo-3,4-dihydrophthalazin-1-yl)-1H-benzimidazol-2-yl)carbamate] | < 500 nM | 5000 to 10000 nM | < 500 nM | < 500 nM | < 500 nM | Y (Y = (% Inhibition versus control) ≤20%. Results with a compound concentration of 4 μM) |
| COC(=O)Nc1nc2cc(-c3n[nH]c(=O)c4ccccc34)ccc2[nH]1 [Compound No. 2, Methyl (5-(4-oxo-3,4-dihydrophthalazin-1-yl)-1H-benzimidazol-2-yl)carbamate] | 1000 to 5000 nM | > 10000 nM | 1000 to 5000 nM | 500 to 1000 nM | – | X (X = (% Inhibition versus control) <20%. Results with a compound concentration of 4 μM) |
| COCCOC(=O)Nc1nc2cc(-c3n[nH]c(=O)c4ccccc34)ccc2[nH]1 [Compound No. 3, 2-Methoxyethyl (5-(4-oxo-3,4-dihydrophthalazin-1-yl)-1H-benzimidazol-2-yl)carbamate] | 1000 to 5000 nM | 5000 to 10000 nM | 1000 to 5000 nM | 500 to 1000 nM | – | Y (Y = (% Inhibition versus control) ≤20%. Results with a compound concentration of 4 μM) |
| CCOC(=O)Nc1nc2cc(-c3n[nH]c(=O)c4ccc(F)cc34)ccc2[nH]1 [Compound No. 9, Ethyl (5-(7-fluoro-4-oxo-3,4-dihydrophthalazin-1-yl)-1H-benzimidazol-2-yl)carbamate] | < 500 nM | > 10000 nM | < 500 nM | < 500 nM | – | – |
| CCOC(=O)Nc1nc2cc(-c3n[nH]c(=O)c4cc(F)c(F)cc34)ccc2[nH]1 [Compound No. 11, Ethyl (5-(6,7-difluoro-4-oxo-3,4-dihydrophthalazin-1-yl)-1H-benzimidazol-2-yl)carbamate] | < 500 nM | > 10000 nM | < 500 nM | < 500 nM | – | – |
| CCOC(=O)Nc1nc2cc(-c3n[nH]c(=O)c4cccc(Cl)c34)ccc2[nH]1 [Compound No. 20, Ethyl (5-(8-chloro-4-oxo-3,4-dihydrophthalazin-1-yl)-1H-benzimidazol-2-yl)carbamate] | 1000 to 5000 nM | > 10000 nM | 500 to 1000 nM | 500 to 1000 nM | – | – |
| CCOC(=O)Nc1nc2cc(-c3n[nH]c(=O)c4cc(Cl)c(Cl)cc34)ccc2[nH]1 [Compound No. 23, Ethyl (5-(6,7-dichloro-4-oxo-3,4-dihydrophthalazin-1-yl)-1H-benzimidazol-2-yl)carbamate] | 500 to 1000 nM | 1000 to 5000 nM | < 500 nM | < 500 nM | – | – |
| CCOC(=O)Nc1nc2cc(-c3n[nH]c(=O)c4ccccc34)cc(C)c2[nH]1 [Compound No. 145, Ethyl (7-methyl-5-(4-oxo-3,4-dihydrophthalazin-1-yl)-1H-benzimidazol-2-yl)carbamate] | < 500 nM | > 10000 nM | < 500 nM | 5000 to 10000 nM | – | – |
